Experimental data from US5308840A, “Substituted or unsubstituted benzhydryl heteroalkyl-substituted aminophenol compounds and pharmaceutical compositions thereof” (Green Cross Corporation, priority 1991, dated 1994).
≈ marks a conversion by molar mass, not a printed value.

Experiments:
[1] = tested on: lipoperoxide production in rat cerebral tissues; test: Inhibition of lipoperoxide production in rat cerebral tissues (TBA reaction in cerebral tissue homogenate); type: biochemical; conditions: 37° C., 120 minutes, test concentrations 10, 1, 0.1, 0.01, 0.001 μg/ml, absorbance 535 nm, least square method
Method: Inhibition of lipoperoxide production in rat cerebral tissues
(1) Preparation of cerebral tissue homogenate
A rat was slaughtered with carbon dioxide, and immediately after blood sampling from the heart, brain was removed and weighed. A 5% (w/v) tissue homogenate was prepared by a homogenizer with PBS (pH 7.3). Homogenation was conducted two times for 15 seconds (scale 10) while cooling.
(2) Inhibition of lipoperoxide production in rat cerebral 4issues.
Each of the test drugs (50 μl, concentration 10, 1, 0.1, 0.01, 0.001 μg/ml) was placed in a polypropylene tube, to which was added cerebral tissue homogenate (1 ml), followed by incubation at 37° C. in a thermobath for 120 minutes. Thereafter, 1% phosphoric acid (0.3 ml), 10% phosphotungstic acid (0.2 ml) and 0.67% TBA (tiobarbituric acid) agent (1 ml) were added thereto while stirring as necessary, and immediately thereafter, TBA reaction was conducted in a boiling water bath for 20 minutes. The mixture was cooled in ice water for 5 minutes, and added with n-butanol (4 ml). After 10 minutes' shaking extraction, it was centrifuged at 3000 rpm and at room temperature (low temperature causes change of absorbance) for 10 minutes. The absorbance of the butanol layer (upper layer) was measured at a wavelength of 535 nm. The difference between the absorbance of the control incubated at 37° C. (added with dimethylsulfoxide only) and that of the control cooled at 2° C. (added with dimethylsulfoxide only) was taken as the amount of 100% lipoperoxide production, and the percent suppression of the drug was calculated from the following formula. [formula] wherein A is the difference of absorbance of 37° C. control and 2° C. control, and B is the difference of absorbance of a drug sample and 2° C. control. The IC50 (μg/ml) was calculated by least square method using the percent inhibition at each concentration.

[2] = tested on: TPA-induced mouse ear edema; test: Effect on TPA-induced mouse ear edema test; type: in vivo, male ICR mice; conditions: inhibition of ear edema (ear weight difference) vs control; TPA 1 μg/20 μl, topical; drug dissolved in TPA solution (100 μg/20 ml); 5 hours
Method: Effect on TPA-induced mouse ear edema test
Male ICR mice weighing about 20 g were etherized, and fixed at the dorsal position. TPA (12-O-tetradecanoylphorbol-13-acetate: phorbol 12-myristate-13-acetate, 1 μg/20 μl) dissolved in a mixed solution of acetone: pyridine: water (97:2:1) was coated on the left year while drying with a dryer. Five hours later, the mice were slaughtered by vertebral dislocation. The both ears were stamped out with a circle chisel (punch), and weighed. The weight difference between the both ears was taken as an index of the degree of edema, and the percent inhibition was calculated from the comparison with the control. Each drug was dissolved in TPA solution (100 μg/20 ml).

CN(C)CC=C(c1ccc(Cl)cc1)c1ccc(O)c(N(C)C)c1 [Compound 5, 1-(4-chlorophenyl)-3-dimethylamino-1-(3-dimethylamine-4-hydroxyphenyl)-1-propene]
IC50 [1]: 0.20 µg/mL (≈ 0.604 µM) | Inhibition (%) [2]: 75.0%

Cc1cc(NCCCN2CCN(C(c3ccccc3)c3ccc(Cl)cc3)CC2)c(O)c(C(C)(C)C)c1 (stereo not drawn) [Compound 20, 6-tert-butyl-2-[3-[4-(4-chlorobenzhydryl)piperazino]propyl]amino-4-methylphenol]
IC50 [1]: 0.066 µg/mL (≈ 0.13 µM) | Inhibition (%) [2]: 63.8%

CN(C)CCN(Cc1ccc(O)c(N(C)C)c1)c1ccccc1 [Compound 4, 2-dimethylamino-4-[N-(2-dimethylaminoethyl)-N-phenyl]aminomethylphenol]
Inhibition (%) [2]: 75.0%

Cc1ccc(O)c(N(CCCN2CCC(C(O)(c3ccccc3)c3ccccc3)CC2)C(C)C)c1 [Compound 23, 2-[N-[3-(4-hydroxydiphenylmethyl-1-piperidinyl)propyl]-N-isopropyl]amino-4-methylphenol]
IC50 [1]: 0.79 µg/mL (≈ 1.67 µM) | Inhibition (%) [2]: 39.2%

Cc1ccc(O)c(NCCCN2CCC(OC(c3ccccc3)c3ccccc3)CC2)c1 [Compound 19, 2-[3-(4-benzhydryloxy-1-piperidinyl)propyl]amino-4-methylphenol]
IC50 [1]: 0.036 µg/mL (≈ 0.0836 µM) | Inhibition (%) [2]: 85.5%

Cc1ccc(O)c(NCCCN2CCN(C(c3ccccc3)c3ccccc3)CC2)c1 [Compound 14, 2-[3-(4-benzhydrylpiperazino)propyl]amino-4-methylphenol]
IC50 [1]: 0.038 µg/mL (≈ 0.0914 µM) | Inhibition (%) [2]: 77.8%

CN1CCN(C(c2ccc(Cl)cc2)c2ccc(O)c(N(C)C)c2)CC1 (stereo not drawn) [Compound 3, 4-[1-(4-chlorophenyl)-1-(4-methylpiperazino)]methyl-2-dimethylaminophenol]
Inhibition (%) [2]: 71.1%

CN(C)CCOC(c1ccc(Cl)cc1)c1ccc(O)c(N(C)C)c1 (stereo not drawn) [Compound 1, 2-[1-(4-chlorophenyl)-1-(3-dimethylamino-4-hydroxyphenyl)methoxy]-N,N-dimethylethanamine]
IC50 [1]: 0.39 µg/mL (≈ 1.12 µM)

Cc1ccc(O)c(NC(C)CN2c3ccccc3Sc3ccccc32)c1 (stereo not drawn) [Compound 12, 2-[1-methyl-2-(phenothiazine-10-yl)ethyl]amino-4-methylphenol]
IC50 [1]: 0.086 µg/mL (≈ 0.237 µM) | Inhibition (%) [2]: 74.7%

Cc1ccc(O)c(N(CCCN2CCN(C(c3ccccc3)c3ccc(Cl)cc3)CC2)C(C)C)c1 (stereo not drawn) [Compound 21, 2-[N-[3-[4-(4-chlorobenzhydryl)piperazino]propyl]-N-isopropyl]amino-4-methylphenol]
IC50 [1]: 0.44 µg/mL (≈ 0.894 µM) | Inhibition (%) [2]: 44.4%

Cc1ccc(O)c(NCCCN2CCC(C(O)(c3ccccc3)c3ccccc3)CC2)c1 [Compound 18, 2-[3-(4-hydroxydiphenylmethyl-1-piperidinyl)propyl]amino-4methylphenol]
IC50 [1]: 0.029 µg/mL (≈ 0.0673 µM) | Inhibition (%) [2]: 89.0%

CN(C)CCC(c1ccc(Cl)cc1)c1ccc(O)c(N(C)C)c1 (stereo not drawn) [Compound 6, 4-[1-(4-chlorophenyl)-3-dimethylaminopropyl]-2-dimethylaminophenol]
IC50 [1]: 0.31 µg/mL (≈ 0.931 µM) | Inhibition (%) [2]: 62.7%

Cc1ccc(O)c(NCCCN2CCN(C(c3ccc(F)cc3)c3ccc(F)cc3)CC2)c1 [Compound 32, 2-[3-[4-(4,4'-difluorobenzhydryl)piperazino]propyl]amino-4-methylphenol]
IC50 [1]: 0.10 µg/mL (≈ 0.221 µM) | Inhibition (%) [2]: 64.1%

Cc1ccc(O)c(NCCCN2CCC(C(O)(c3ccccc3)c3ccc(Cl)cc3)CC2)c1 (stereo not drawn) [Compound 26, 2-[3-[4-(4-chlorophenyl)hydroxyphenylmethyl-1-piperidinyl]propyl]amino-4-methylphenol]
Inhibition (%) [2]: 97.5%

Cc1ccc(O)c(NCCCN2CCN(C(c3ccccc3)c3ccc(Cl)cc3)CC2)c1 (stereo not drawn) [Compound 15, 2-[3-[4-(4-chlorobenzhydryl)piperazino]propyl]amino-4-methylphenol]
IC50 [1]: 0.12 µg/mL (≈ 0.267 µM) | Inhibition (%) [2]: 86.7%

Cc1ccc(O)c(N(C)CCCN2CCN(C(c3ccccc3)c3ccccc3)CC2)c1 [Compound 16, 2-[N-[3-(4-benzhydrylpiperazino)propyl]-N-methyl]amino-4-methylphenol]
IC50 [1]: 0.30 µg/mL (≈ 0.698 µM) | Inhibition (%) [2]: 50.9%

Cc1ccc(O)c(N(C)CCOC(c2ccccc2)c2ccccc2)c1 [Compound 10]
IC50 [1]: 0.23 µg/mL (≈ 0.662 µM)

Cc1ccc(O)c(NCCCN2CCCN(C(c3ccccc3)c3ccc(Cl)cc3)CC2)c1 (stereo not drawn) [Compound 17, 2-[3-[4-(4-chlorobenzhydryl)homopiperazino)propyl]amino-4-methylphenol]
IC50 [1]: 0.013 µg/mL (≈ 0.028 µM) | Inhibition (%) [2]: 87.0%

CN(C)c1cc(CN2CCN(C(c3ccccc3)c3ccc(Cl)cc3)CC2)ccc1O (stereo not drawn) [Compound 7, 4-[4-(4-chlorobenzhydryl)piperazino]methyl-2-dimethylaminophenol]
IC50 [1]: 0.16 µg/mL (≈ 0.367 µM) | Inhibition (%) [2]: 54.6%
